Experiments:
Hepatitis B virus = assay: Antiviral activity against Hepatitis B virus infected in human HepG2.2.15 cells; assay type: functional, organism-based
[1] = Cytotoxicity against human HepG2.2.15 cells assessed as reduction in cell viability by CellTiter-Glo reagent based assay; assay type: toxicity, HepG2 2.2.15
[2] = AUC (0 to infinity) in ICR mouse at 50 mg/kg, po; assay type: ADME, organism-based; parameters: route oral, time infinity, dose 50 mg/kg; settings: in vivo
[3] = Cmax in ICR mouse at 50 mg/kg, po; assay type: ADME, organism-based; parameters: route oral, dose 50 mg/kg; settings: in vivo
[4] = Half life in ICR mouse at 50 mg/kg, po; assay type: ADME, organism-based; settings: in vivo
[5] = Tmax in ICR mouse at 50 mg/kg, po; assay type: ADME, organism-based; settings: in vivo

| Structure (SMILES) | EC50 (Hepatitis B virus) | AUC(0-inf) [2] | Cmax [3] | half-life [4] | Tmax [5] | CC50 [1] |
| --- | --- | --- | --- | --- | --- | --- |
| C[C@H]1Cn2ncc(N3CC(c4ccccc4)CC3=O)c2CN1C(=O)NCc1cc(F)c(F)c(F)c1 (some centres undefined) | > 2 µM |  |  |  |  | > 2 µM |
| O=C1CC(c2ccc(F)cc2)CN1c1cnn2c1CN(C(=O)Nc1cc(F)c(F)c(F)c1)C(C1CC1)C2 (centres undefined) | 0.023 µM |  |  |  |  | 32 µM |
| C[C@H]1Cn2ncc(N3CC(c4ccccc4)CC3=O)c2CN1S(=O)(=O)Nc1cc(F)c(F)c(F)c1 (some centres undefined) | > 2 µM |  |  |  |  | > 2 µM |
| O=C1CC(c2ccc(F)cn2)CN1c1cnn2c1CN(C(=O)Nc1cc(F)c(F)c(F)c1)C(C1CC1)C2 (centres undefined) | 0.015 µM |  |  |  |  | 38.5 µM |
| O=C1CC(c2ncc(F)cn2)CN1c1cnn2c1CN(C(=O)Nc1cc(F)c(F)c(F)c1)C(C1CC1)C2 (centres undefined) | 0.02 µM |  |  |  |  | 115 µM |
| O=C1OC(c2ccccc2)CN1c1cnn2c1CN(C(=O)Nc1cc(F)c(F)c(F)c1)C(C1CC1)C2 (centres undefined) | 0.018 µM |  |  |  |  | 7.41 µM |
| O=C1CC(c2ncccn2)CN1c1cnn2c1CN(C(=O)Nc1cc(F)c(F)c(F)c1)C(C1CC1)C2 (centres undefined) | 0.015 µM | 5070 ng·h/mL | 5980 ng/mL | 52.2 min | 15 min | > 200 µM |
| O=C1c2ccccc2CN1c1cnn2c1CN(C(=O)Nc1cc(F)c(F)c(F)c1)C(C1CC1)C2 (centres undefined) | 0.083 µM |  |  |  |  | 38.5 µM |
| O=C1CC(c2ccccc2)CN1c1cnn2c1CN(C(=O)Nc1cc(F)c(F)c(F)c1)C1CCCCC12 (centres undefined) | 0.027 µM |  |  |  |  | 21.4 µM |
| O=C1CC(c2ccccn2)CN1c1cnn2c1CN(C(=O)Nc1cc(F)c(F)c(F)c1)C(C1CC1)C2 (centres undefined) | 0.012 µM |  |  |  |  | 96.2 µM |
| O=C1NC(c2ccccc2)CN1c1cnn2c1CN(C(=O)Nc1cc(F)c(F)c(F)c1)C(C1CC1)C2 (centres undefined) | 0.003 µM |  |  |  |  | 38.5 µM |
| O=C1CC(c2cnc(C(F)(F)F)s2)CN1c1cnn2c1CN(C(=O)Nc1cc(F)c(F)c(F)c1)C(C1CC1)C2 (centres undefined) | 0.027 µM |  |  |  |  | 38.5 µM |
| O=C(Nc1cc(F)c(F)c(F)c1)N1Cc2c(-c3ccc(F)cc3F)cnn2CC1C1CC1 (centres undefined) | 0.023 µM |  |  |  |  | 32 µM |
| O=C1CC(Oc2ncc(F)cn2)CN1c1cnn2c1CN(C(=O)Nc1cc(F)c(F)c(F)c1)C(C1CC1)C2 (centres undefined) | 0.009 µM |  |  |  |  | 96.2 µM |
| O=C1OC(c2ccc(F)cc2)CN1c1cnn2c1CN(C(=O)Nc1cc(F)c(F)c(F)c1)C(C1CC1)C2 (centres undefined) | 0.011 µM |  |  |  |  | 3.56 µM |
| O=C1CC(c2ccccc2)CN1c1cnn2c1CN(C(=O)Nc1cc(F)c(F)c(F)c1)C(C1CC1)C2 (centres undefined) | 0.006 µM |  |  |  |  | 12.8 µM |
| O=C1CC(Oc2ncccn2)CN1c1cnn2c1CN(C(=O)Nc1cc(F)c(F)c(F)c1)C(C1CC1)C2 (centres undefined) | 0.016 µM | 4020 ng·h/mL | 5270 ng/mL | 57 min | 15 min | > 200 µM |
| O=C1CC(c2ccccc2)CN1c1cnn2c1CN(C(=O)Nc1cc(F)c(F)c(F)c1)C(Cc1ccccc1)C2 (centres undefined) | > 2 µM |  |  |  |  | > 2 µM |
| O=C(Nc1cc(F)c(F)c(F)c1)N1Cc2c(-c3ccc(F)cc3)cnn2CC1C1CC1 (centres undefined) | 0.004 µM |  |  |  |  | 38.5 µM |

Second part, led by results:

| EC50 (Hepatitis B virus) | AUC(0-inf) [2] | Cmax [3] | half-life [4] | Tmax [5] | Structure (SMILES) | CC50 [1] |
| --- | --- | --- | --- | --- | --- | --- |
| 0.009 µM | 12200 ng·h/mL | 8740 ng/mL | 222 min | 15 min | O=C1CC(c2ncco2)CN1c1cnn2c1CN(C(=O)Nc1cc(F)c(F)c(F)c1)C(C1CC1)C2 (centres undefined) | > 200 µM |
| 0.124 µM |  |  |  |  | N#CC1CC(=O)N(c2cnn3c2CN(C(=O)Nc2cc(F)c(F)c(F)c2)C2(CC2)C3)C1 (centres undefined) | > 200 µM |
| 0.016 µM | 3860 ng·h/mL | 3860 ng/mL | 202 min | 19.8 min | Cc1nc(C2CC(=O)N(c3cnn4c3CN(C(=O)Nc3cc(F)c(F)c(F)c3)C(C3CC3)C4)C2)no1 (centres undefined) | > 200 µM |
| > 2 µM |  |  |  |  | C[C@H]1Cn2ncc(N3CC(c4ccccc4)CC3=O)c2CN1C(=S)Nc1cc(F)c(F)c(F)c1 (some centres undefined) | > 2 µM |
| 0.011 µM |  |  |  |  | O=C1CC(c2nccs2)CN1c1cnn2c1CN(C(=O)Nc1cc(F)c(F)c(F)c1)C(C1CC1)C2 (centres undefined) | 115 µM |
| 0.009 µM | 6510 ng·h/mL | 3130 ng/mL | 136 min | 15 min | C[C@H]1Cn2ncc(N3CC(c4ccccc4)CC3=O)c2CN1C(=O)Nc1cc(F)c(F)c(F)c1 (some centres undefined) | 12.8 µM |
| 0.038 µM |  |  |  |  | CC1(C)CN(C(=O)Nc2cc(F)c(F)c(F)c2)Cc2c(N3CC(C#N)CC3=O)cnn21 (centres undefined) | > 200 µM |
| > 2 µM |  |  |  |  | O=C(Nc1cc(F)c(F)c(F)c1)N1CCCn2ncc(N3CC(c4ccccc4)CC3=O)c2C1 (centres undefined) | > 2 µM |
| > 2 µM |  |  |  |  | CC1CCn2ncc(N3CC(c4ccccc4)CC3=O)c2CN1C(=O)Nc1cc(F)c(F)c(F)c1 (centres undefined) | > 2 µM |
| 0.062 µM |  |  |  |  | CC1CN(C(=O)Nc2cc(F)c(F)c(F)c2)Cc2c(N3CC(C#N)CC3=O)cnn21 (centres undefined) | 115 µM |
| 0.016 µM |  |  |  |  | O=C1CC(c2cnco2)CN1c1cnn2c1CN(C(=O)Nc1cc(F)c(F)c(F)c1)C(C1CC1)C2 (centres undefined) | 139 µM |
| 0.012 µM | 10600 ng·h/mL | 6400 ng/mL | 278 min | 15 min | N#CC1CC(=O)N(c2cnn3c2CN(C(=O)Nc2cc(F)c(F)c(F)c2)C(C2CC2)C3)C1 (centres undefined) | > 200 µM |
| 0.034 µM |  |  |  |  | O=C1CC(C(F)(F)F)CN1c1cnn2c1CN(C(=O)Nc1cc(F)c(F)c(F)c1)C(C1CC1)C2 (centres undefined) | 115 µM |
| 0.02 µM |  |  |  |  | CC1(C)CC(=O)N(c2cnn3c2CN(C(=O)Nc2cc(F)c(F)c(F)c2)C(C2CC2)C3)C1 (centres undefined) | 115 µM |
| 0.018 µM |  |  |  |  | Cc1cnc(C2CC(=O)N(c3cnn4c3CN(C(=O)Nc3cc(F)c(F)c(F)c3)C(C3CC3)C4)C2)s1 (centres undefined) | 96.2 µM |
| > 2 µM |  |  |  |  | C[C@H]1Cn2ncc(N3CC(c4ccccc4)CC3=O)c2CN1CC(=O)Nc1cc(F)c(F)c(F)c1 (some centres undefined) | > 2 µM |
